Test results published in ChEMBL document CHEMBL3822442, “Synthesis and Pharmacological Characterization of Novel Glucagon-like Peptide-2 (GLP-2) Analogues with Low Systemic Clearance” (J Med Chem, 2016).
Activity calls are given as the source filed them. The calls are words filed in the database; no cut-off is given here. Non-standard residues stand in square brackets, D forms with d. Residues, ends and D or L forms follow the SMILES beside them. ξ: configuration not given here. ξNle = CCCCC(N)C(=O)O

Tests used:
HEK293 = assay: Selectivity ratio of EC50 for human GLP1R expressed in HEK293 cells to EC50 for human GLP2R expressed in HEK293; type: cell-based
[1] = target: Glucagon receptor (Homo sapiens) (UniProt P47871); assay: Agonist activity at human GCGR expressed in HEK293 cells up to 1000 nM after 5 hrs by luciferase reporter gene assay; type: cell-based
[2] = target: T1, Glucagon-like peptide 2 receptor (Homo sapiens, UniProt O95838); assay: Agonist activity at human GLP2R expressed in HEK293 cells after 5 hrs by luciferase reporter gene assay; type: cell-based
T1 sequence (O95838 whole entry): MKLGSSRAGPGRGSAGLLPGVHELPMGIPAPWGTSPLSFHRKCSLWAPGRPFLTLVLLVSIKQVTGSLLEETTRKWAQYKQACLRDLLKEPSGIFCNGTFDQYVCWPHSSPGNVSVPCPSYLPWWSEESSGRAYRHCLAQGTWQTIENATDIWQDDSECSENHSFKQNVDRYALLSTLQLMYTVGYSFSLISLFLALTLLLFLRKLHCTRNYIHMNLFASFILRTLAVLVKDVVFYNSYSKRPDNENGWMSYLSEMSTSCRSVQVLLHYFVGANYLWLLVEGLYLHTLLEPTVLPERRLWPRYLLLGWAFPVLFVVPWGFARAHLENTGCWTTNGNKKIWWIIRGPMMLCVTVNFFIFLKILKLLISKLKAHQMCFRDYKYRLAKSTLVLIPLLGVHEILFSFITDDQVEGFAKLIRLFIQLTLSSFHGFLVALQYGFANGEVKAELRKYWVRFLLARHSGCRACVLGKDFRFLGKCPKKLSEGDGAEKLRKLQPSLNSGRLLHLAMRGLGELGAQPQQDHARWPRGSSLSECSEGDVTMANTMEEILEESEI

[3] = target: T2, Glucagon-like peptide 1 receptor (Homo sapiens, UniProt P43220); assay: Agonist activity at human GLP1R expressed in HEK293 cells after 5 hrs by luciferase reporter gene assay; type: cell-based
[4] = target: T2, Glucagon-like peptide 1 receptor; assay: Agonist activity at human GLP1R expressed in HEK293 cells at 30 nM after 5 hrs by luciferase reporter gene assay; type: cell-based
[5] = Systemic clearance in Sprague-Dawley rat at 0.2 mg/kg, iv through cassette dosing measured up to 300 mins by LC/MS/MS analysis; type: ADME, organism-based; conditions: in vivo
[6] = target: Glucagon receptor (Homo sapiens) (UniProt P47871); assay: Agonist activity at human GCGR expressed in HEK293 cells after 5 hrs by luciferase reporter gene assay; type: cell-based

Glucagon receptor (Homo sapiens), sequence (P47871 whole entry): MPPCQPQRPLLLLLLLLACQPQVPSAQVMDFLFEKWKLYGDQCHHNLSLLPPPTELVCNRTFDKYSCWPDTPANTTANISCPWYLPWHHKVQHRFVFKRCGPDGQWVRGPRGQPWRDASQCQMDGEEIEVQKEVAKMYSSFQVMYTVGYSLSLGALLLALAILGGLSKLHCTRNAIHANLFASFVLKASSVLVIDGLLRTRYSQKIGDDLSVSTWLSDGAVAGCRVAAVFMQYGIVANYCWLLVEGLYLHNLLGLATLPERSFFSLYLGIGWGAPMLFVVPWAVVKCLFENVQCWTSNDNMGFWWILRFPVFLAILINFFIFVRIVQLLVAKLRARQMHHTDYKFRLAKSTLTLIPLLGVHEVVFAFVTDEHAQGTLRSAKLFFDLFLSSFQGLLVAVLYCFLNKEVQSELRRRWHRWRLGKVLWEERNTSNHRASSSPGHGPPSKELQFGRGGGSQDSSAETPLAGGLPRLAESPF
T2 sequence (P43220 whole entry): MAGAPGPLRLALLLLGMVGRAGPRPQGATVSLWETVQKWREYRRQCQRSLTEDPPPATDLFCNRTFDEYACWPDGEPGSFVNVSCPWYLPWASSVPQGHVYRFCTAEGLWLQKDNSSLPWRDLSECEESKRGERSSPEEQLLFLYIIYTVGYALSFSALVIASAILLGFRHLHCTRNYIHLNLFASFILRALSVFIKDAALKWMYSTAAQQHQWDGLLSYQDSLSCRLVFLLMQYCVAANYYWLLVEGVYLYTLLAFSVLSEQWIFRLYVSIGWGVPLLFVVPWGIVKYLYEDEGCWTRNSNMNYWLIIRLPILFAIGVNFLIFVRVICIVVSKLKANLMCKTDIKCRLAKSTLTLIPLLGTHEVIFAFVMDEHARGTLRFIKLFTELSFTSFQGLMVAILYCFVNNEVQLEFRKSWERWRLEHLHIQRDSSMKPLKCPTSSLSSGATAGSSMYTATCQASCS

CCCCC(NC(=O)[C@H](CCC(=O)O)NC(=O)[C@H](CC(=O)O)NC(=O)[C@H](CO)NC(=O)[C@H](Cc1ccccc1)NC(=O)[C@H](CO)NC(=O)CNC(=O)[C@H](CC(=O)O)NC(=O)CNC(=O)[C@H](N)Cc1cnc[nH]1)C(=O)N[C@@H](CC(N)=O)C(=O)N[C@H](C(=O)N[C@H](C(=O)N[C@@H](CC(C)C)C(=O)N[C@@H](CC(=O)O)C(=O)NC(CC1CCCCC1)C(=O)N[C@H](CC(C)C)C(=O)N[C@H](C)C(=O)N[C@H](C)C(=O)N[C@H](CCCNC(=N)N)C(=O)N[C@H](CC(=O)O)C(=O)N[C@H](Cc1ccccc1)C(=O)N[C@@H](C(=O)N[C@H](CC(N)=O)C(=O)N[C@@H](Cc1c[nH]c2ccccc12)C(=O)N[C@@H](CC(C)C)C(=O)N[C@H](C(=O)N[C@@H](CCC(N)=O)C(=O)N[C@H](C(=O)N[C@H](CCCCN)C(N)=O)[C@@H](C)O)[C@H](C)CC)[C@@H](C)CC)[C@H](C)CC)[C@@H](C)O (stereo partly drawn)
Ratio EC50 (HEK293): > 10000 | Activity [1]: inactive

CCCCC(NC(=O)[C@H](CCC(=O)O)NC(=O)[C@H](CC(=O)O)NC(=O)[C@H](CO)NC(=O)[C@H](Cc1ccccc1)NC(=O)[C@H](CO)NC(=O)CNC(=O)[C@H](CC(=O)O)NC(=O)CNC(=O)[C@H](N)Cc1cnc[nH]1)C(=O)N[C@@H](CC(N)=O)C(=O)N[C@H](C(=O)N[C@H](C(=O)N[C@@H](CC(C)C)C(=O)N[C@@H](CC(=O)O)C(=O)NC(Cc1ccc(Cl)cc1)C(=O)N[C@H](CC(C)C)C(=O)N[C@H](C)C(=O)N[C@H](C)C(=O)N[C@H](CCCNC(=N)N)C(=O)N[C@H](CC(=O)O)C(=O)N[C@H](Cc1ccccc1)C(=O)N[C@@H](C(=O)N[C@H](CC(N)=O)C(=O)N[C@@H](Cc1c[nH]c2ccccc12)C(=O)N[C@@H](CC(C)C)C(=O)N[C@H](C(=O)N[C@@H](CCC(N)=O)C(=O)N[C@H](C(=O)N[C@H](CCCCN)C(N)=O)[C@@H](C)O)[C@H](C)CC)[C@@H](C)CC)[C@H](C)CC)[C@@H](C)O (stereo partly drawn)
Ratio EC50 (HEK293): > 4500 | Activity [1]: inactive

CCCCC(NC(=O)[C@H](CCC(=O)O)NC(=O)[C@H](CC(=O)O)NC(=O)[C@H](CO)NC(=O)[C@H](Cc1ccccc1)NC(=O)[C@H](CO)NC(=O)CNC(=O)[C@H](CC(=O)O)NC(=O)CNC(=O)[C@H](N)Cc1cnc[nH]1)C(=O)N[C@@H](CC(N)=O)C(=O)N[C@H](C(=O)N[C@H](C(=O)N[C@@H](CC(C)C)C(=O)N[C@@H](CC(=O)O)C(=O)NC(Cc1ccc(-c2ccccc2)cc1)C(=O)N[C@H](CC(C)C)C(=O)N[C@H](C)C(=O)N[C@H](C)C(=O)N[C@H](CCCNC(=N)N)C(=O)N[C@H](CC(=O)O)C(=O)N[C@H](Cc1ccccc1)C(=O)N[C@@H](C(=O)N[C@H](CC(N)=O)C(=O)N[C@@H](Cc1c[nH]c2ccccc12)C(=O)N[C@@H](CC(C)C)C(=O)N[C@H](C(=O)N[C@@H](CCC(N)=O)C(=O)N[C@H](C(=O)N[C@H](CCCCN)C(N)=O)[C@@H](C)O)[C@H](C)CC)[C@@H](C)CC)[C@H](C)CC)[C@@H](C)O (stereo partly drawn)
Ratio EC50 (HEK293): > 2800 | Activity [1]: inactive

CCCCC(NC(=O)[C@@H](CCC(=O)O)NC(=O)[C@@H](CC(=O)O)NC(=O)[C@@H](CO)NC(=O)[C@@H](Cc1ccccc1)NC(=O)[C@@H](CO)NC(=O)CNC(=O)[C@@H](CC(=O)O)NC(=O)CNC(=O)[C@@H](N)Cc1cnc[nH]1)C(=O)N[C@H](CC(N)=O)C(=O)N[C@@H](C(=O)N[C@@H](C(=O)N[C@H](CC(C)C)C(=O)N[C@H](CC(=O)O)C(=O)NC(Cc1ccc2ccccc2c1)C(=O)N[C@@H](CC(C)C)C(=O)N[C@@H](C)C(=O)N[C@@H](C)C(=O)N[C@@H](CCCNC(=N)N)C(=O)N[C@@H](CC(=O)O)C(=O)N[C@@H](Cc1ccccc1)C(=O)N[C@H](C(=O)N[C@@H](CC(N)=O)C(=O)N[C@H](Cc1c[nH]c2ccccc12)C(=O)N[C@H](CC(C)C)C(=O)N[C@@H](C(=O)N[C@H](CCC(N)=O)C(=O)N[C@@H](C(=O)N[C@@H](CCCCN)C(N)=O)[C@H](C)O)[C@@H](C)CC)[C@H](C)CC)[C@@H](C)CC)[C@H](C)O (stereo partly drawn)
Ratio EC50 (HEK293): > 7600 | Activity [1]: inactive

CCCCC(NC(=O)[C@H](CCC(=O)O)NC(=O)[C@H](CC(=O)O)NC(=O)[C@H](CO)NC(=O)[C@H](Cc1ccccc1)NC(=O)[C@H](CO)NC(=O)CNC(=O)[C@H](CC(=O)O)NC(=O)CNC(=O)[C@H](N)Cc1cnc[nH]1)C(=O)N[C@@H](CC(N)=O)C(=O)N[C@H](C(=O)N[C@H](C(=O)N[C@@H](CC(C)C)C(=O)N[C@@H](CC(=O)O)C(=O)NC(Cc1ccc(N)cc1)C(=O)N[C@H](CC(C)C)C(=O)N[C@H](C)C(=O)N[C@H](C)C(=O)N[C@H](CCCNC(=N)N)C(=O)N[C@H](CC(=O)O)C(=O)N[C@H](Cc1ccccc1)C(=O)N[C@@H](C(=O)N[C@H](CC(N)=O)C(=O)N[C@@H](Cc1c[nH]c2ccccc12)C(=O)N[C@@H](CC(C)C)C(=O)N[C@H](C(=O)N[C@@H](CCC(N)=O)C(=O)N[C@H](C(=O)N[C@H](CCCCN)C(N)=O)[C@@H](C)O)[C@H](C)CC)[C@@H](C)CC)[C@H](C)CC)[C@@H](C)O (stereo partly drawn)
Ratio EC50 (HEK293): > 7600 | Activity [1]: inactive

CCCCC(NC(=O)[C@H](CCC(=O)O)NC(=O)[C@H](CC(=O)O)NC(=O)[C@H](CO)NC(=O)[C@H](Cc1ccccc1)NC(=O)[C@H](CO)NC(=O)CNC(=O)[C@H](CC(=O)O)NC(=O)CNC(=O)[C@@H](N)Cc1cnc[nH]1)C(=O)N[C@H](Cc1c[nH]c2ccccc12)C(=O)N[C@H](C(=O)N[C@H](C(=O)N[C@@H](CC(C)C)C(=O)N[C@@H](CC(=O)O)C(=O)N[C@@H](CC(N)=O)C(=O)N[C@@H](CC(C)C)C(=O)N[C@@H](C)C(=O)N[C@@H](C)C(=O)N[C@@H](CCCNC(=N)N)C(=O)N[C@@H](CC(=O)O)C(=O)N[C@@H](Cc1ccccc1)C(=O)N[C@H](C(=O)N[C@@H](CC(N)=O)C(=O)N[C@@H](Cc1c[nH]c2ccccc12)C(=O)N[C@@H](CC(C)C)C(=O)N[C@H](C(=O)N[C@@H](CCC(N)=O)C(=O)N[C@H](C(=O)N[C@@H](CCCCN)C(N)=O)[C@@H](C)O)[C@@H](C)CC)[C@@H](C)CC)[C@@H](C)CC)[C@@H](C)O (stereo partly drawn)
EC50 [2]: 0.1 nM | EC50 [3]: 40 nM | Efficacy [4]: 80% | Ratio EC50 (HEK293): 400 | clearance [5]: 1.2 mL/min/kg | Activity [6]: inactive

CCCCC(NC(=O)[C@H](CCC(=O)O)NC(=O)[C@H](CC(=O)O)NC(=O)[C@H](CO)NC(=O)[C@H](Cc1ccccc1)NC(=O)[C@H](CO)NC(=O)CNC(=O)[C@H](CC(=O)O)NC(=O)CNC(=O)[C@@H](N)Cc1cnc[nH]1)C(=O)N[C@H](C(=O)N[C@H](C(=O)N[C@H](C(=O)N[C@@H](CC(C)C)C(=O)N[C@@H](CC(=O)O)C(=O)N[C@@H](CC(N)=O)C(=O)N[C@@H](CC(C)C)C(=O)N[C@@H](C)C(=O)N[C@@H](C)C(=O)N[C@@H](CCCNC(=N)N)C(=O)N[C@@H](CC(=O)O)C(=O)N[C@@H](Cc1ccccc1)C(=O)N[C@H](C(=O)N[C@@H](CC(N)=O)C(=O)N[C@@H](Cc1c[nH]c2ccccc12)C(=O)N[C@@H](CC(C)C)C(=O)N[C@H](C(=O)N[C@@H](CCC(N)=O)C(=O)N[C@H](C(=O)N[C@@H](CCCCN)C(N)=O)[C@@H](C)O)[C@@H](C)CC)[C@@H](C)CC)[C@@H](C)CC)[C@@H](C)O)[C@@H](C)CC (stereo partly drawn) (H-HGDGSFSDE[ξNle]ITILDNLAARDFINWLIQTK-NH2)
EC50 [2]: 0.13 nM | EC50 [3]: 110 nM | Efficacy [4]: 92% | Ratio EC50 (HEK293): 840 | clearance [5]: 5.6 mL/min/kg | Activity [6]: inactive

CCCCC(NC(=O)[C@H](CCC(=O)O)NC(=O)[C@H](CC(=O)O)NC(=O)[C@H](CO)NC(=O)[C@H](Cc1ccccc1)NC(=O)[C@H](CO)NC(=O)CNC(=O)[C@H](CC(=O)O)NC(=O)CNC(=O)[C@@H](N)Cc1cnc[nH]1)C(=O)N[C@H](Cc1cccs1)C(=O)N[C@H](C(=O)N[C@H](C(=O)N[C@@H](CC(C)C)C(=O)N[C@@H](CC(=O)O)C(=O)N[C@@H](CC(N)=O)C(=O)N[C@@H](CC(C)C)C(=O)N[C@@H](C)C(=O)N[C@@H](C)C(=O)N[C@@H](CCCNC(=N)N)C(=O)N[C@@H](CC(=O)O)C(=O)N[C@@H](Cc1ccccc1)C(=O)N[C@H](C(=O)N[C@@H](CC(N)=O)C(=O)N[C@@H](Cc1c[nH]c2ccccc12)C(=O)N[C@@H](CC(C)C)C(=O)N[C@H](C(=O)N[C@@H](CCC(N)=O)C(=O)N[C@H](C(=O)N[C@@H](CCCCN)C(N)=O)[C@@H](C)O)[C@@H](C)CC)[C@@H](C)CC)[C@@H](C)CC)[C@@H](C)O (stereo partly drawn)
EC50 [2]: 0.1 nM | EC50 [3]: 80 nM | Efficacy [4]: 49% | Ratio EC50 (HEK293): 800 | clearance [5]: 1.1 mL/min/kg | Activity [6]: inactive
